{
  "source": "patent US10030064B2",
  "about": "“Mammalian cell culture processes for protein production” (priority 2009, dated 2018)",
  "test_system": "CHO DG44 cell line expressing the fusion glycoprotein",
  "experiment": "Shake flask CHO culture: total sialic acid content, N-linked and O-linked oligosaccharide profile of the secreted fusion glycoprotein",
  "type": "cell-based, Chinese hamster",
  "protocol": "The CHO cell line used in this study was originally subcloned from DG44 parental cells and cultured in a proprietary protein-free growth medium.\nThe experiments were carried out in 250-mL shake flasks (VWR international) with starting volumes of 100 mL and initial cell densities of 6×10^5 cells/mL. The cultures were placed on a shaker platform (VWR international) at 150 rpm and maintained at 37° C. and 6% CO2 for ten days. The cultures were sampled daily and the pH was adjusted as needed using 1M sodium carbonate and fed with glucose and glutamine every two days in order to maintain them at adequate levels. Cell density and viability were measured offline using a Cedex automated cell counter (Innovatis AG, Bielefeld, Germany). Culture pH and concentrations for glucose and glutamine were measured off-line using a Bioprofile Analyzer 400 (Nova Biomedical Corporation, Waltham, Mass.).\nThe sialic acid to recombinant protein molar ratio was calculated by determining the sialic acid and recombinant protein concentrations. Sialic acid (SA), including N-Acetylneuraminic (Neu5Ac) and N-glycolylneuraminic acid (Neu5Gc), was released by partial acid hydrolysis. The derivatives were then separated by reversed-phase HPLC to determine sialic acid content. The protein concentrations were determined by UV absorbance at 280 nm. Sialic acid content is reported as molar ratios, which is the total moles of Neu5Ac and Neu5Gc per mole of recombinant glycoprotein. Sialic acid contents are reported as normalized values, which are the actual values divided by an arbitrary value. The same divisor was used to normalize all sialic acid content data in the studies reported here.\nHigh-pH anion-exchange chromatography with pulsed amperometric detection (HPAEC-PAD) was used for the profiling of N-linked oligosaccharides (Base and Spellman 1990; Townsend and Hardy 1991) to provide information on site-specific N-linked glycosylation. N-linked oligosaccharides were cleaved from protein and separated on HPAEC-PAD into four domains based on the amount of sialic acid present. Domain I represents the asialo species. Domains II, III, and IV are sialylated species and represent monosialylated, disialylated, and tri- and tetrasialylated species, respectively. N-linked sialylated species fraction is reported as the percentage of N-linked sialylated species within the total N-linked oligosaccharides species, which includes both asialo and sialylated species. N-linked sialylated species fractions are reported as normalized values, which are the actual values divided by an arbitrary value. The same divisor was used to normalize all N-linked sialylated species fraction data in the studies reported here.\nO-linked glycosylation was characterized by intact mass analysis of a reference standard and Protein-A purified samples of the fusion protein (Reference). Samples were diluted in 100 mM Tris, 25 mM NaCl, pH 7.6 and incubated with PNGase F overnight to enzymatically remove all N-linked oligosaccharides. Samples were then injected for intact mass analysis after mixing with an internal standard of insulin. O-linked sialic acid content is reported as molar ratios, which is the moles of O-linked sialic acid per mole of recombinant glycoprotein.\nThis study was performed in duplicate 250-mL shake flasks using the culture conditions as described above. […] Cultures were harvested on day 10, and the fusion protein was purified using a protein A column and analyzed for total sialic acid content, O-linked sialic acid content and the N-linked profile.",
  "key": {"[1]": {"conditions": "0.1 μM DEX, with 1 μM RU-486 added 24 hours before DEX"}, "[2]": {"conditions": "DEX 0.01 μM added day 2, harvest day 10"}, "[3]": {"conditions": "DEX 0.1 μM added day 2, harvest day 10"}, "[4]": {"conditions": "DEX 1.0 μM added day 2, harvest day 10"}, "[5]": {"conditions": "DEX 10 μM added day 2, harvest day 10"}},
  "data": [
    {"smiles": "C[C@@H]1C[C@H]2[C@@H]3CCC4=CC(=O)C=C[C@]4(C)[C@@]3(F)[C@@H](O)C[C@]2(C)[C@@]1(O)C(=O)CO", "note": "[DEX, dexamethasone]", "values": [
      {"measurement": "normalized N-linked sialylated species fraction", "setting": "[1]", "result": "81.5±0.8"},
      {"measurement": "normalized total sialic acid content", "setting": "[1]", "result": "12.7±0.1"},
      {"measurement": "normalized N-linked sialylated species fraction", "setting": "0.1 μM DEX, without RU-486", "result": "92.2±2.0"},
      {"measurement": "Percent increase of N-link asialo-", "setting": "[2]", "result": "−8.6", "unit": "%"},
      {"measurement": "Percent increase of N-link-Di-", "setting": "[2]", "result": 13.9, "unit": "%"},
      {"measurement": "Percent increase of N-link-Mono-", "setting": "[2]", "result": 6.6, "unit": "%"},
      {"measurement": "Percent increase of N-link-Tri and tetra-", "setting": "[2]", "result": 4.5, "unit": "%"},
      {"measurement": "Percent increase of O-link SA", "setting": "[2]", "result": 0.0, "unit": "%"},
      {"measurement": "Percent increase of SA", "setting": "DEX 0.01 μM added day 2, harvest day 10, vs control", "result": 9.3, "unit": "%"},
      {"measurement": "Percent increase of N-link asialo-", "setting": "[3]", "result": "−9.6", "unit": "%"},
      {"measurement": "Percent increase of N-link-Di-", "setting": "[3]", "result": 13.9, "unit": "%"},
      {"measurement": "Percent increase of N-link-Mono-", "setting": "[3]", "result": 7.3, "unit": "%"},
      {"measurement": "Percent increase of N-link-Tri and tetra-", "setting": "[3]", "result": 13.6, "unit": "%"},
      {"measurement": "Percent increase of O-link SA", "setting": "[3]", "result": 0.5, "unit": "%"},
      {"measurement": "Percent increase of SA", "setting": "DEX 0.1 μM added day 2, harvest day 10, vs control", "result": 13.0, "unit": "%"},
      {"measurement": "Percent increase of N-link asialo-", "setting": "[4]", "result": "−10.0", "unit": "%"},
      {"measurement": "Percent increase of N-link-Di-", "setting": "[4]", "result": 19.4, "unit": "%"},
      {"measurement": "Percent increase of N-link-Mono-", "setting": "[4]", "result": 4.3, "unit": "%"},
      {"measurement": "Percent increase of O-link SA", "setting": "[4]", "result": 0.9, "unit": "%"},
      {"measurement": "Percent increase of SA", "setting": "DEX 1.0 μM added day 2, harvest day 10, vs control", "result": 13.0, "unit": "%"},
      {"measurement": "Percent increase of N-link asialo-", "setting": "[5]", "result": "−15.6", "unit": "%"},
      {"measurement": "Percent increase of N-link-Di-", "setting": "[5]", "result": 24.3, "unit": "%"},
      {"measurement": "Percent increase of N-link-Mono-", "setting": "[5]", "result": 7.3, "unit": "%"},
      {"measurement": "Percent increase of N-link-Tri and tetra-", "setting": "[5]", "result": 20.5, "unit": "%"},
      {"measurement": "Percent increase of O-link SA", "setting": "[5]", "result": 0.0, "unit": "%"},
      {"measurement": "Percent increase of SA", "setting": "DEX 10 μM added day 2, harvest day 10, vs control", "result": 20.4, "unit": "%"}
    ]}
  ]
}
